Reference: PMC4418728, “A High Throughput Protein Microarray Approach to Classify HIV Monoclonal Antibodies and Variant Antigens” (PLoS ONE, 2015)
No end group written: not given here.

Assays:
mAb 2F5 = assay: In-solution competition ELISA; format: binding, human; details: competition with biotinylated peptide bio-57 (0.1 μg/ml) for mAb 2F5 (0.2 μg/ml), peptide 1:3 dilutions from 0.04 mM, 2 h at 37°C, duplicate, at least two experiments; for IC50: read-out: IC50 of competitor peptide, mAb 2F5
Method: (§1) The in-solution competition ELISA was performed according to Stanfield and colleagues. In brief, 96-well plates were coated o/n with 200 ng/well neutravidin (Pierce) in PBS at 4°C and blocked with 4% NFDM for 1 h at RT. Different competing MPER peptide analogs (serially diluted 1:3 in 1% NFDM at a starting concentration of 0.04 mM) were mixed with a constant concentration of biotinylated peptide bio-0705 (0.1 μg/ml) or bio-57 (0.1 μg/ml) and the corresponding human mAb 4E10 (0.5 μg/ml) or mAb 2F5 (0.2 μg/ml), respectively. The antibody/peptide mixture was incubated for 2 h at 37°C, subsequently transferred to the neutravidin plates and incubated at 37°C for 20 min. Bound antibodies were detected with HRP labeled goat anti human F(ab)2 conjugate (Pierce). After 1 h at RT, wells were developed, stopped and read as described above. The concentration of competitor peptide corresponding to a half-maximal signal (IC50) was determined by nonlinear fit interpolation of the resulting binding curve (GraphPad PRISM 5.0 software). Each peptide competitor was tested in duplicate in at least two separate experiments.

mAb 4E10 = assay: In-solution competition ELISA; format: binding, human; details: for IC50: read-out: IC50 of competitor peptide, mAb 4E10
Method: as §1

[1] = competition with biotinylated peptide bio-0705 (0.1 μg/ml) for mAb 4E10 (0.5 μg/ml), peptide 1:3 dilutions from 0.04 mM, 2 h at 37°C, duplicate, at least two experiments

| Substance | IC50 (mAb 2F5) [nM] | IC50 (mAb 4E10; [1]) [nM] | enhancement in IC50 compared to control peptide 94.1, mAb 4E10 (mAb 4E10; in-solution competition assay) | IC50 of competitor peptide, mAb 2F5 (mAb 2F5) | IC50 of competitor peptide, mAb 4E10 (mAb 4E10; [1]) |
| --- | --- | --- | --- | --- | --- |
| ELDKWASLWNWFDITNWLWYIKIEELKSKIKRIENEIKRIKK [compound 09128] | 76.3 | 0.9 | more than 80 fold | – | – |
| ELDKWASLWNWFNITNWLWYIKIEELKSKIKRIENEIKRIKK [C22-pT, reference compound] | > 10000 | 3270 | – | – | – |
| WTLNIFWIWSYLDWSNKKKK-NH2 [compound 08023, scrambled negative control peptide based on 09122] | – | – | – | did not interact | did not interact |
